Reference: publication PMC7024208, “In Silico and In Vitro Experimental Studies of New Dibenz[b,e]oxepin-11(6H)one O-(arylcarbamoyl)-oximes Designed as Potential Antimicrobial Agents” (Molecules, 2020)
In brackets after ≈: the same amount, converted by molar mass. Where two headings read alike, the source gives them in different places.

How the values were obtained:
B. subtilis ATCC 6633 [1] = assay: Qualitative antimicrobial screening, adapted disk diffusion; assay type: cell-based, Bacillus subtilis; parameters: zone of inhibition: dose or concentration left out as unconfirmed; details: for growth inhibition diameter / zone of inhibition at 5000 µg/mL (stock): B. subtilis ATCC 6633, adapted diffusion assay; for zone of inhibition / zone of inhibition at 5000 µg/mL (stock): Bacillus subtilis; for zone of inhibition: ATCC6633, read-out: growth inhibition diameter; for zone of inhibition at 5000 µg/mL (stock): ATCC6633, read-out: growth inhibition diameter
Experimental: (§1) The antimicrobial activities of the synthesized compounds were determined against ATCC reference and clinical microbial strains, i.e., Bacillus subtilis ATCC 6633, Staphylococcus aureus ATCC 25923, Escherichia coli ATCC 25922, Klebsiella pneumoniae 350, Pseudomonas aeruginosa 1671 and Candida albicans ATCC 10231, using as positive controls the antibiotic ticarcillin and the antifungal agent fluconazole. Microbial suspensions of 1.5 × 10^8 CFU/mL corresponding to 0.5 McFarland density obtained from 15–18 h bacterial cultures developed on solid media were used in our experiments. The antimicrobial activity was tested on Mueller-Hinton Agar (MHA) medium, while a Yeast Peptone Glucose (YPG) medium was used in case of C. albicans. The obtained compounds were solubilized in DMSO and the starting stock solution was of 5000 μg/mL concentration. The qualitative screening was performed by an adapted disk diffusion method as previously reported.

S. aureus ATCC 25923 [2] = assay: as above; assay type: cell-based, Staphylococcus aureus; parameters: zone of inhibition: dose or concentration left out as unconfirmed; details: for zone of inhibition / zone of inhibition at 5000 µg/mL (stock): Staphylococcus aureus; for zone of inhibition: ATCC25923, read-out: growth inhibition diameter; for zone of inhibition at 5000 µg/mL (stock): ATCC25923, read-out: growth inhibition diameter
Experimental: as §1

P. aeruginosa ATCC 27853 = assay: as above; assay type: cell-based; parameters: zone of inhibition: dose or concentration left out as unconfirmed; details: Pseudomonas aeruginosa; for zone of inhibition: ATCC27853, read-out: growth inhibition diameter; for zone of inhibition at 5000 µg/mL (stock): ATCC27853, P. aeruginosa ATCC 27853, adapted diffusion assay, read-out: growth inhibition diameter
E. coli ATCC 25922 [3] = assay: as above; assay type: cell-based, Escherichia coli; parameters: zone of inhibition: dose or concentration left out as unconfirmed; details: for zone of inhibition / zone of inhibition at 5000 µg/mL (stock): Escherichia coli; for zone of inhibition: ATCC25922, read-out: growth inhibition diameter; for zone of inhibition at 5000 µg/mL (stock): ATCC25922, read-out: growth inhibition diameter; for zone of inhibition at 5000 µg/mL (stock) / growth inhibition diameter: E. coli ATCC 25922, adapted diffusion assay
Experimental: as §1

K. pneumoniae 1771 = assay: as above; assay type: cell-based, Klebsiella pneumoniae; parameters: zone of inhibition: dose or concentration left out as unconfirmed; details: for zone of inhibition: Klebsiella pneumoniae, 1771, read-out: growth inhibition diameter; for zone of inhibition at 5000 µg/mL (stock): Klebsiella pneumoniae, K. pneumoniae 1771, adapted diffusion assay, read-out: growth inhibition diameter
C. albicans ATCC 10231 [4] = assay: as above; assay type: cell-based, Candida albicans; parameters: zone of inhibition: dose or concentration left out as unconfirmed; details: for zone of inhibition / zone of inhibition at 5000 µg/mL (stock): Candida albicans; for zone of inhibition: ATCC10231, read-out: growth inhibition diameter; for zone of inhibition at 5000 µg/mL (stock): ATCC10231, read-out: growth inhibition diameter; for zone of inhibition at 5000 µg/mL (stock) / growth inhibition diameter: C. albicans ATCC 10231, adapted diffusion assay
Experimental: as §1

B. subtilis ATCC 6633 [5] = assay: MIC by liquid medium microdilution; assay type: cell-based, Bacillus subtilis; details: B. subtilis ATCC 6633, 24 h at 37 °C
Experimental: as §1
(§2) The quantitative assay of the antimicrobial activity was performed by the liquid medium microdilution method, in 96 multi-well plates, in order to establish the minimal inhibitory concentration (MIC). In this purpose, serial two-fold dilutions of the compounds ranging between 5000 and 4.8 µg/mL were performed in a 200 µL volume of broth and each well was seeded with 50 µL of microbial inoculum. Sterility control (wells containing only culture medium) and culture controls (wells containing culture medium seeded with the microbial inoculum) were used. The influence of the DMSO solvent was also quantified in a series of wells containing DMSO [36], diluted accordingly with the dilution scheme used for the compounds and for the positive controls.

C. albicans ATCC 10231 [6] = assay: MIC by liquid medium microdilution; assay type: cell-based; details: Candida albicans
Experimental: as §1, §2

E. coli ATCC 25922 [7] = assay: MIC by liquid medium microdilution; assay type: cell-based; details: Escherichia coli
Experimental: as §1, §2

S. aureus ATCC 25923 [8] = assay: MIC by liquid medium microdilution; assay type: cell-based; details: Staphylococcus aureus
Experimental: as §1, §2

S. aureus ATCC 25923 [9] = assay: Antibiofilm activity (MBEC), micro-titer method on plastic inert substratum; assay type: cell-based, Staphylococcus aureus; details: S. aureus ATCC 25923 biofilm on plastic substratum
Experimental: (§3) The assessment of the new compounds influence on the microbial ability to colonize the plastic inert substratum was performed by the micro-titer method, following previously described protocols. The absorbance at 490 nm was measured with an LB 911 ELISA reader (Apollo, Berthold Technologies GmbH & Co. KG, Bad Wildbad, Germany). All biological experiments were performed in triplicates.

[10] = Cytotoxicity, CellTiter Assay; assay type: cell-based; details: human, HCT8 cells, 400–10 µg/mL tested
Experimental: (§4) For the in vitro assessment of the cytotoxic effect, the HCT8 cells and the CellTiter Assay kit (Promega, Madison, WI, USA) and Annexin V-FITC Apoptosis Detection Kit I (BD Bioscience Pharmingen, Franklin Lakes, NJ, USA) were used. Briefly, for CellTiter Assay, 1 × 10^4 cells/well were plated in 96 well plate and 24 h after, were treated with the new compound at final concentration between 400 µg/mL–10 µg/mL. The viability was evaluated after 24 h by adding CellTiter aqueous solution and reading to spectrophotometer according to the manufacturer indications. The IC50 were calculated from the percent of viability reported to untreated cells using on line tools https://www.aatbio.com/tools/ic50-calculator. For Annexin V-FITC Apoptosis Detection Kit I, 5 × 10^5 cells were seeded in 3.5 cm diameter Petri dish and treated with 100 µg/mL compounds solution for 24 h. The total cells were resuspended in 100 µL of binding buffer, and stained with 5 µL Annexin V-FITC and 5 µL propidium iodide for 10 min in dark. At least 10,000 events from each sample were acquired using a flow cytometer (Beckman Coulter, Indianapolis, IN, USA). The percentage of cells affected by the treatment was determined by subtracting the percentage of apoptotic/necrotic cells in the untreated population from percentage of apoptotic cells in the treated population.

[11] = Annexin V-FITC/propidium iodide apoptosis analysis by flow cytometry; assay type: cell-based; details: human, HCT8 cells, Annexin V-FITC/PI, read-out: viable cells (Q4)
Experimental: as §4

B. subtilis ATCC 6633 [12] = assay: Antibiofilm activity (MBEC), micro-titer method on plastic inert substratum; assay type: cell-based, Bacillus subtilis; details: B. subtilis ATCC 6633 biofilm on plastic substratum
Experimental: as §3

E. coli ATCC 25922 [13] = assay: as above; assay type: cell-based, Escherichia coli; details: E. coli ATCC 25922 biofilm on plastic substratum
Experimental: as §3

C. albicans ATCC 10231 [14] = assay: as above; assay type: cell-based, Candida albicans; details: C. albicans ATCC 10231 biofilm on plastic substratum
Experimental: as §3

[15] = Bacillus subtilis, ATCC6633, 24 h
[16] = S. aureus ATCC 25923, adapted diffusion assay
[17] = Bacillus subtilis, ATCC6633, 24 h, read-out: MIC
[18] = ATCC25922, E. coli ATCC 25922, 24 h at 37 °C, read-out: MIC
[19] = ATCC25923, S. aureus ATCC 25923, 24 h at 37 °C, read-out: MIC
[20] = ATCC10231, C. albicans ATCC 10231, 24 h at 37 °C, read-out: MIC

SMILES | growth inhibition diameter (B. subtilis ATCC 6633 [1]) | zone of inhibition (B. subtilis ATCC 6633 [1]) [mm] | zone of inhibition (S. aureus ATCC 25923 [2]) [mm] | zone of inhibition (P. aeruginosa ATCC 27853) [mm] | zone of inhibition (E. coli ATCC 25922 [3]) [mm] | zone of inhibition (K. pneumoniae 1771) [mm] | MBEC (S. aureus ATCC 25923 [9]) [µg/mL] | IC50 at 24 h [10] [µg/mL] | viability at 24 h, 100 µg/mL [11] [%] | zone of inhibition at 5000 µg/mL (stock) (B. subtilis ATCC 6633 [1]) [mm] | zone of inhibition at 5000 µg/mL (stock) (S. aureus ATCC 25923 [2]; [16]) [mm] | zone of inhibition at 5000 µg/mL (stock) (P. aeruginosa ATCC 27853) [mm] | zone of inhibition at 5000 µg/mL (stock) (E. coli ATCC 25922 [3]) [mm] | zone of inhibition at 5000 µg/mL (stock) (K. pneumoniae 1771) [mm] | MIC (E. coli ATCC 25922 [7]; [18]) [µg/mL] | MIC (S. aureus ATCC 25923 [8]; [19]) [µg/mL] | MBEC (B. subtilis ATCC 6633 [12]) [µg/mL] | zone of inhibition at 5000 µg/mL (stock) (C. albicans ATCC 10231 [4]) [mm] | MBEC (C. albicans ATCC 10231 [14]) [µg/mL] | growth inhibition diameter (C. albicans ATCC 10231 [4]) | further results
O=C(Nc1ccc(F)cc1)ON=C1c2ccccc2COc2ccccc21 [Compound 7b, 6,11-Dihydrodibenz[b,e]oxepin-11(6H)one O-(4-fluorophenyl-carbamoyl)oxime] | active exclusively on B. subtilis | 7 | 0 | 0 | 0 | 0 | 19.5 | 252 (≈ 695 µM) | 84.3 |  |  |  |  |  |  |  |  |  |  |  | zone of inhibition (C. albicans ATCC 10231 [4]): 0 mm; MIC (B. subtilis ATCC 6633 [5]): 4.8 µg/mL (≈ 13.2 µM); MIC (B. subtilis ATCC 6633 [5]; [15]): 4.8 to 39 µg/mL (≈ 13.2 to 108 µM); MIC (C. albicans ATCC 10231 [6]; ATCC10231, 24 h): > 5000 µg/mL; MIC (E. coli ATCC 25922 [7]; ATCC25922, 24 h): > 5000 µg/mL; MIC (S. aureus ATCC 25923 [8]; ATCC25923, 24 h): > 5000 µg/mL
CC1(C)S[C@@H]2[C@H](NC(=O)[C@H](C(=O)O)c3ccsc3)C(=O)N2[C@H]1C(=O)O [Ticarcillin, ticarcillin, reference compound] |  |  |  |  |  |  | 156 |  |  | 15 | 21 | 17 | 24 | 0 | 19.5 (≈ 50.7 µM) | 9.76 (≈ 25.4 µM) | 156 |  |  |  | MIC (B. subtilis ATCC 6633 [5]; [17]): 78 µg/mL (≈ 203 µM); MBEC (E. coli ATCC 25922 [13]): 625 µg/mL
OC(Cn1cncn1)(Cn1cncn1)c1ccc(F)cc1F [Fluconazole, fluconazole, reference compound] |  |  |  |  |  |  |  |  |  |  |  |  |  |  |  |  |  | 10 | 39 |  | MIC (C. albicans ATCC 10231 [6]; [20]): 4.8 µg/mL (≈ 15.7 µM)
Cc1cccc(NC(=O)ON=C2c3ccccc3COc3ccccc32)c1 [Compound 7a, 6,11-Dihydrodibenz[b,e]oxepin-11(6H)one O-(3-tolyl-carbamoyl)oxime] | anti-B. subtilis | 8 | 0 | 0 | 0 | 0 | 39 | 264 (≈ 737 µM) | 84.2 |  |  |  |  |  |  |  | 156 |  | 39 | anti-C. albicans activity | zone of inhibition (C. albicans ATCC 10231 [4]): 8 mm; MIC (B. subtilis ATCC 6633 [5]): 4.8 µg/mL (≈ 13.4 µM); MIC (B. subtilis ATCC 6633 [5]; [15]): 4.8 to 39 µg/mL (≈ 13.4 to 109 µM); MIC (C. albicans ATCC 10231 [6]; ATCC10231, 24 h): 4.8 µg/mL (≈ 13.4 µM); MIC (E. coli ATCC 25922 [7]; ATCC25922, 24 h): > 5000 µg/mL; MIC (S. aureus ATCC 25923 [8]; ATCC25923, 24 h): > 5000 µg/mL; MBEC (E. coli ATCC 25922 [13]): 625 µg/mL
O=C(Nc1cccc(Cl)c1)ON=C1c2ccccc2COc2ccccc21 [Compound 7c, 6,11-Dihydrodibenz[b,e]oxepin-11(6H)one O-(3-chlorophenyl-carbamoyl)oxime] |  |  |  |  |  |  |  | 304 (≈ 803 µM) | 89.8 | 0 | 0 | 0 | 4 | 0 | 1250 (≈ 3300 µM) | > 5000 |  | 8 | 4.8 | active against | growth inhibition diameter (E. coli ATCC 25922 [3]): active against; MIC (B. subtilis ATCC 6633 [5]; [17]): > 5000 µg/mL; MIC (C. albicans ATCC 10231 [6]; [20]): 1250 µg/mL (≈ 3300 µM)
O=C(Nc1cccc(C(F)(F)F)c1)ON=C1c2ccccc2COc2ccccc21 [Compound 7f, 6,11-Dihydrodibenz[b,e]oxepin-11(6H)one O-(3-trifluoromethylphenyl-carbamoyl)oxime] | inhibited the microbial growth |  |  |  |  |  | 39 | 54.3 (≈ 132 µM) | 14.8 | 11 | 8 | 0 | 10 | 0 | 78 (≈ 189 µM) | 4.8 (≈ 11.6 µM) | 39 | 12 |  | inhibited the microbial growth | growth inhibition diameter (S. aureus ATCC 25923 [2]; [16]): inhibited the microbial growth; growth inhibition diameter (E. coli ATCC 25922 [3]): inhibited the microbial growth
